Source: patent publication US10407388B2, “Thiourea derivatives as activators of RORα and pharmaceutical composition containing same” (SEOUL NATIONAL UNIVERSITY R & DB FOUNDATION, priority 2011, dated 2019)

molecular target: T1, RORα (Homo sapiens, UniProt P35398); experiment: Transcriptional activity of RORα, RORE-tk-Luc reporter in CV-1 cells (Experimental Example 1); assay type: cell-based; settings: JC1 compounds 100 μM, 24 hours; luciferase activity standardized by β-gal; versus control treated only with solvent
T1 construct: expressed in transfected cells; host or cells: CV-1 cells (ATCC CCL-70)
T1 sequence (P35398 1-523): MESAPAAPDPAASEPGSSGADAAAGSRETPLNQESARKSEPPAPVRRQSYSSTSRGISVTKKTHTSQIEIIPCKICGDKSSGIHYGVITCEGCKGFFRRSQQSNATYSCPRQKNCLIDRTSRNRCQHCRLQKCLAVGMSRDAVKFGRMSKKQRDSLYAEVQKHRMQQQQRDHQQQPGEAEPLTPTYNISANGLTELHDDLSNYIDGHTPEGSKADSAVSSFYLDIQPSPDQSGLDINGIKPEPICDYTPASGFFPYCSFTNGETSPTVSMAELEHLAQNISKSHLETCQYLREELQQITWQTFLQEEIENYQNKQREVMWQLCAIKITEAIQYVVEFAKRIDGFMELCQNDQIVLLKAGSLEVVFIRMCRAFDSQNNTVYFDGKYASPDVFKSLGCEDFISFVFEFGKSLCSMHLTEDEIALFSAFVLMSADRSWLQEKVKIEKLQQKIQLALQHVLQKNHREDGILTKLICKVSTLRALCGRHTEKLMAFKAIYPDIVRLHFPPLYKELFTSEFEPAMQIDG
Method: CV-1 cells (CCL-70) were purchased from American Type Culture Collection (ATCC). The CV-1 cells (4×10^4 cells/well) were seeded on a 24-well culture plate and cultured overnight in a Dulbecco's Modified Eagle's Medium (DMEM) containing 10% fetal bovine serum (FBS). The CV-1 cells were maintained at 37° C. in a humidification thermostat containing 5% CO2 and 95% air. After culturing, the cells were transformed with RORE-tk-Luc reporter plasmid (100 ng) and ROR expression vector (5 ng) using calcium phosphate. […]

| Structure (SMILES) | Fold Activation |
| --- | --- |
| CNC(=S)N[C@@H](C)c1ccc(OC)cc1 [Compound 36, S-(−)-1-[1-(4-methoxy-phenyl)-ethyl]-3-methyl-thiourea] | 0.6 |
| CNC(=S)NCc1ccc(OC)cc1OC [Compound 23, 1-(2,4-dimethoxy-benzyl)-3-methyl-thiourea] | 2.9 |
| CCOc1ccccc1CNC(=S)NC [Compound 16, 1-(2-ethoxy-benzyl)-3-methyl-thiourea] | 1.4 |
| CCOc1cc(-c2ccc(C(C)(C)C)cc2)ccc1CNC(N)=S [Compound 45, (4′-tert-butyl-3-ethoxy-biphenyl-4-methyl)-thiourea] | 1.0 |
| CNC(=S)NCc1ccccc1C [Compound 7, 1-(2-methyl-benzyl)-3-methyl-thiourea] | 0.7 |
| CNC(=S)NCc1ccc(OC)c(O)c1 [Compound 25, 1-(3-hydroxy-4-methoxy-benzyl)-3-methyl-thiourea] | 1.9 |
| CNC(=S)NCc1ccc(O)c(OC)c1 [Compound 9, 1-(4-hydroxy-3-methoxy-benzyl)-3-methyl-thiourea] | 1.4 |
| CNC(=S)NCc1ccccc1Oc1ccccc1 [Compound 51, 1-methyl-3-(2-phenoxy-benzyl)-thiourea] | 1.3 |
| CNC(=S)NCc1ccc(C(C)(C)C)cc1 [Compound 13, 1-(4-t-butyl-benzyl)-3-methyl-thiourea] | 0.9 |
| CNC(=S)NCc1cccc(OC)c1OC [Compound 15, 1-(2,3-dimethoxy-benzyl)-3-methyl-thiourea] | 1.5 |
| CNC(=S)NCc1cccc([N+](=O)[O-])c1 [Compound 17, 1-(3-nitro-benzyl)-3-methyl-thiourea] | 0.9 |
| CNC(=S)NCc1ccc(O)c(O)c1 [Compound 22, 1-(3,4-dihydroxy-benzyl)-3-methyl-thiourea] | 0.6 |
| CNC(=S)NCc1ccc(N(C)C)cc1 [Compound 10, 1-(4-dimethylamino-benzyl)-3-methyl-thiourea] | 1.3 |
| CNC(=S)NCc1ccc(Cl)cc1 [Compound 3, 1-(4-chloro-benzyl)-3-methyl-thiourea] | 2.6 |
| CNC(=S)NCc1ccccc1[N+](=O)[O-] [Compound 18, 1-(2-nitro-benzyl)-3-methyl-thiourea] | 2.1 |
| CNC(=S)NCc1ccc(C(F)(F)F)cc1 [Compound 11, 1-(4-trifluoromethyl-benzyl)-3-methyl-thiourea] | 2.3 |
| CNC(=S)NCc1ccc(Br)cc1 [Compound 2, 1-(4-bromo-benzyl)-3-methyl-thiourea] | 1.4 |
| CCOc1cc(-c2ccccc2)ccc1CNC(=S)NC [Compound 44, 1-(3-ethoxy-biphenyl-4-methyl)-3-methyl-thiourea] | 1.2 |
| CNC(=S)NCc1ccc(OC)cc1 [Compound 4, 1-(4-methoxy-benzyl)-3-methyl-thiourea] | 3.4 |
| CNC(=S)NCc1ccc(C)cc1 [Compound 14, 1-(4-methyl-benzyl)-3-methyl-thiourea] | 3.9 |
| CNC(=S)NCc1ccc(Oc2ccc(OC)cc2)cc1 [Compound 53, 1-[4-(4-methoxy-phenoxy)-benzyl]-3-methyl-thiourea] | 2.1 |
| CNC(=S)NCc1ccc(F)c(F)c1 [Compound 31, 1-(3,4-difluoro-benzyl)-3-methyl-thiourea] | 0.8 |
| CNC(=S)NCc1cccc(F)c1 [Compound 29, 1-(3-fluoro-benzyl)-3-methyl-thiourea] | 1.1 |

| Structure (SMILES) | Fold Activation |
| --- | --- |
| CNC(=S)NCc1ccc2c(c1)OCO2 [Compound 8, 1-(benzo[1,3]dioxyl-5-methyl)-3-methyl-thiourea] | 1.7 |
| CNC(=S)NCc1ccc(Oc2ccc(F)cc2)cc1 [Compound 52, 1-[4-(4-fluoro-phenoxy)-benzyl]-3-methyl-thiourea] | 1.5 |
| CNC(=S)NCc1ccccc1Cl [Compound 34, 1-(2-chloro-benzyl)-3-methyl-thiourea] | 0.8 |
| CNC(=S)NCc1ccccc1Br [Compound 1, 1-(2-bromo-benzyl)-3-methyl-thiourea] | 3.4 |
| CNC(=S)NCc1cc(OC)c(OC)c(OC)c1 [Compound 19, 1-(3,4,5-trimethoxy-benzyl)-3-methyl-thiourea] | 2.2 |
| CNC(=S)NCc1cccc(Cl)c1Cl [Compound 33, 1-(2,3-dichloro-benzyl)-3-methyl-thiourea] | 0.7 |
| CNC(=S)NCc1cccc(Cl)c1 [Compound 28, 1-(3-chloro-benzyl)-3-methyl-thiourea] | 0.7 |
| CCOc1cc(C=Cc2ccccc2)ccc1CNC(=S)NC [Compound 47, 1-(2-ethoxy-4-styryl-benzyl)-3-methyl-thiourea] | 1.2 |
| CNC(=S)NCc1ccc(OC)c(OCc2ccccc2)c1 [Compound 41, 1-(3-benzyloxy-4-methoxy-benzyl)-3-methyl-thiourea] | 2.5 |
| CCOc1cc(-c2ccc(C(F)(F)F)cc2)ccc1CNC(=S)NC [Compound 48, 1-(3-ethoxy-4′-trifluoromethyl-biphenyl-4-methyl)-3-methyl-thiourea] | 1.0 |
| CNC(=S)NCc1ccc(OC)cc1OC [Compound 5, 1-(2,4-dimethoxy-benzyl)-3-methyl-thiourea] | 1.1 |
| CNC(=S)NCc1ccc(F)cc1 [Compound 30, 1-(4-fluoro-benzyl)-3-methyl-thiourea] | 2.5 |
| CNC(=S)NCc1ccc(F)cc1F [Compound 32, 1-(2,4-difluoro-benzyl)-3-methyl-thiourea] | 0.9 |
| CNC(=S)NCc1cc(OC)cc(OC)c1 [Compound 20, 1-(3,5-dimethoxy-benzyl)-3-methyl-thiourea] | 1.0 |
| CNC(=S)NCc1ccc(-c2ccccc2)cc1 [Compound 24, 1-(4-phenyl-benzyl)-3-methyl-thiourea] | 0.2 |
| CNC(=S)NCc1cccc(C)c1 [Compound 6, 1-(3-methyl-benzyl)-3-methyl-thiourea] | 1.1 |
| CNC(=S)NCc1ccc2ccccc2c1 [Compound 43, 1-methyl-3-naphthalene-2-methyl-thiourea] | 0.7 |
| CNC(=S)NCc1ccc(Cl)c(Cl)c1 [Compound 27, 1-(3,4-dichloro-benzyl)-3-methyl-thiourea] | 1.0 |
| CNC(=S)NCc1ccc(Cl)cc1Cl [Compound 21, 1-(2,4-dichloro-benzyl)-3-methyl-thiourea] | 0.6 |
| CNC(=S)N[C@H](C)c1ccc(OC)cc1 [Compound 35, R-(+)-1-[1-(4-methoxy-phenyl)-ethyl]-3-methyl-thiourea] | 0.7 |
| CNC(=S)NCc1ccc([N+](=O)[O-])cc1 [Compound 12, 1-(4-nitro-benzyl)-3-methyl-thiourea] | 1.6 |
| C=CCOc1ccccc1CNC(=S)NC [Compound 39, 1-(2-allyloxy-benzyl)-3-methyl-thiourea] | 1.8 |
